The values below come from ChEMBL document CHEMBL1139425, “Characterization of the binding properties of SIRT2 inhibitors with a N-(3-phenylpropenoyl)-glycine tryptamide backbone” (Bioorg Med Chem, 2008).

Assay [1] addresses T1, NAD-dependent protein deacetylase sirtuin-2 (Homo sapiens) (UniProt Q8IXJ6).
T1 sequence (whole entry): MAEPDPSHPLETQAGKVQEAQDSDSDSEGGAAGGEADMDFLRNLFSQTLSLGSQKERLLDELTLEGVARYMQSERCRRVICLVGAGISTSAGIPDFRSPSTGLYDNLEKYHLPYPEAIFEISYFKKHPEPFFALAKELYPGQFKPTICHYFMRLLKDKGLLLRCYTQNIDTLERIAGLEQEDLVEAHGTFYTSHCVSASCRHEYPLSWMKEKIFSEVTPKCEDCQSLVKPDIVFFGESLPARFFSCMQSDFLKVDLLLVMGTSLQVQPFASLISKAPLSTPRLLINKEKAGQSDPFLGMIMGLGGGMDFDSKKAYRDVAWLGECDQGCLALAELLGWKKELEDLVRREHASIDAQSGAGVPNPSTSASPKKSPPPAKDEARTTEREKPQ
In words: Inhibition of recombinant GST-tagged SIRT2 at 200 uM by Fluor de Lys fluorescence assay.

The target of assay [2] is T2, NAD-dependent protein deacetylase sirtuin-2 (Homo sapiens, UniProt Q8IXJ6).
T2 sequence (Q8IXJ6 whole entry): T1 sequence (whole entry)
As to the kind of experiment: Inhibition of recombinant GST-tagged SIRT2 by Fluor de Lys fluorescence assay.

The inhibition is the percentage by which the read-out fell short of the control. Regarding `CC(C)(NC(=O)/C=C/c1ccc(O)cc1)C(=O)NCCc1cccnc1`, the inhibition in assay [1] came out at 2%.
By IC50 is commonly meant the concentration that gives 50% inhibition. With `CC(C)(NC(=O)/C=C/c1ccccc1)C(=O)NCCc1c[nH]c2ccccc12`, in assay [1], the inhibition stood at 49.5%. Further, the IC50 in assay [2] was found to be 100 µM.
For the molecule `O=C(/C=C/c1ccc(O)cc1)NCCc1c[nH]c2ccccc12`, the inhibition in assay [1] amounted to 44.3%.
Turning to `COc1cccc(/C=C/C(=O)NC(C)(C)C(=O)NCCc2c[nH]c3ccccc23)c1`, the inhibition in assay [1] was determined as 45.9%.
Same read-out and setting: in the case of `C[C@H](NC(=O)/C=C/c1ccccc1)C(=O)NCCc1ccccc1` it was 29.6%.
In the case of `CC(C)(NC(=O)/C=C/c1ccc(F)cc1)C(=O)NCCc1c[nH]c2ccccc12`, in assay [1], the inhibition is 61.3%. For the same molecule, in assay [2], the IC50 was 105 µM.
For `C[C@H](NC(=O)CCc1ccccc1)C(=O)NCCc1c[nH]c2ccc(OCc3ccccc3)cc12`, in that order: 50.2% and 86 µM.
Turning to `O=C(/C=C/c1ccccc1)NCCc1c[nH]c2ccccc12`, the inhibition in assay [1] turned out to be 58%. In assay [2], the IC50 was 173 µM.
Turning to `O=C(NCCc1c[nH]c2ccc(OCc3ccccc3)cc12)[C@@H]1CCCN1C(=O)CCc1ccccc1`, in assay [1], the inhibition came to 29.8%.
As for `O=C(/C=C/c1ccccc1)NCC(=O)NCCc1c[nH]c2ccccc12`, the inhibition in assay [1] is 22.7%.
Regarding `CC(C)(NC(=O)CCc1ccccc1)C(=O)NCCc1c[nH]c2ccccc12`, the inhibition in assay [1] is 12.5%.
On to `O=C(/C=C/c1ccccc1)NCC(=O)NCCc1c[nH]c2ccc(OCc3ccccc3)cc12`, for which the inhibition in assay [1] is 32.9%.
`CC(C)(NC(=O)CCc1ccc(O)cc1)C(=O)NCCc1c[nH]c2ccccc12`: in assay [1], the inhibition was found to be 19.5%.
For the molecule `COc1ccc2[nH]cc(CCNC(=O)CNC(=O)/C=C/c3ccccc3)c2c1`, the inhibition in assay [1] is 24.2%.
Regarding `COc1ccccc1/C=C/C(=O)NC(C)(C)C(=O)NCCc1c[nH]c2ccccc12`, the inhibition in assay [1] came to 35%.
The same measure, in the same setting: next, `O=C(NCCc1c[nH]c2ccccc12)[C@@H]1CCCN1C(=O)/C=C/c1ccccc1`: 36.6%; `CC(C)(NC(=O)/C=C/c1cccc(O)c1)C(=O)NCCc1c[nH]c2ccccc12`: 46.7%.
For `O=C(CCc1ccccc1)NCCc1c[nH]c2ccccc12`, the inhibition in assay [1] worked out at 44.1%.
Turning to `CC(C)(NC(=O)/C=C/c1cccc([N+](=O)[O-])c1)C(=O)NCCc1c[nH]c2ccccc12`, the inhibition in assay [1] turned out to be 42.1%.
For the molecule `C[C@H](NC(=O)/C=C/c1ccccc1)C(=O)NCCc1c[nH]c2ccc(OCc3ccccc3)cc12`, in assay [1], the inhibition was determined as 43.7%.
For `C[C@H](NC(=O)/C=C/c1ccccc1)C(=O)NCCc1c[nH]c2ccccc12`, the inhibition in assay [1] worked out at 59.6%. For the same molecule, the IC50 in assay [2] was determined as 109 µM.
